Source: article PMC4619332, “Targeting type-2 metabotropic glutamate receptors to protect vulnerable hippocampal neurons against ischemic damage” (Molecular Brain, 2015)

Biological target: T1, mGlu3 receptor (Homo sapiens, UniProt Q14832)
T1 construct: gene GRM3; recombinant receptor stably expressed in HEK293 cells
Experiment: FLIPR Ca2+ mobilization, antagonist mode at glutamate EC80
Assay type: cell-based
Description: FLIPR Ca2+ mobilization, antagonist mode [NT]

T1 sequence (Q14832 23-879): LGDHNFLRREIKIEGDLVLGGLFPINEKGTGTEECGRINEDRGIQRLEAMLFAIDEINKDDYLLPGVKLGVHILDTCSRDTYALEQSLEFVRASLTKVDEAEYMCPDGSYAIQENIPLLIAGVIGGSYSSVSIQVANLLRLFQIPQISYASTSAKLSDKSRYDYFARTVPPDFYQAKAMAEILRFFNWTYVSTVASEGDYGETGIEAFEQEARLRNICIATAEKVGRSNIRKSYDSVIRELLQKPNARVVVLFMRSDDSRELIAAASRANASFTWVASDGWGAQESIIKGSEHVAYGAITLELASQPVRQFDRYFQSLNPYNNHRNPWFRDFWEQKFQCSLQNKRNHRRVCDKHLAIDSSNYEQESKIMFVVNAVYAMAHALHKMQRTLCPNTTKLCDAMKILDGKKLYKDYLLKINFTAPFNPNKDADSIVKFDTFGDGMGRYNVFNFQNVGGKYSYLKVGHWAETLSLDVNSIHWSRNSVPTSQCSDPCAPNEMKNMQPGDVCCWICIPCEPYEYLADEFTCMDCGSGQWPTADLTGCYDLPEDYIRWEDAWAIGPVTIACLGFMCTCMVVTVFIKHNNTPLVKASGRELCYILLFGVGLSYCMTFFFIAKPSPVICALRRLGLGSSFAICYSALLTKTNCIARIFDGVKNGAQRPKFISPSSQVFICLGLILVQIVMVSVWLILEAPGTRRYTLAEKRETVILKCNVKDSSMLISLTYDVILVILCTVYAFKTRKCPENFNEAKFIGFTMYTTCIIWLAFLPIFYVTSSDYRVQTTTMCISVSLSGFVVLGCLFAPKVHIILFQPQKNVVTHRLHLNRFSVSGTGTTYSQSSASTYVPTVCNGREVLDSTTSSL

Substance ADX92639 has an IC50 of 17.4 µM.
